# Results: paper PMC7922564, “Molecular Insights into an Antibiotic Enhancer Action of New Morpholine-Containing 5-Arylideneimidazolones in the Fight against MDR Bacteria” (International Journal of Molecular Sciences, 2021)
# Like-named read-outs stand apart in the source and are kept apart here.
# Assays:
# [1] = test system: K. aerogenes Ea-289 (overexpression of AcrAB-TolC); experiment: MIC of compounds, K. aerogenes Ea-289; format: cell-based; conditions: Klebsiella aerogenes
# Experimental: At first, MIC values of compounds were determined (Table S15, Supplementary). Next, their abilities to reduce MICs of the AcrAB-TolC substrates doxycycline (a tetracycline-class antibiotic) and erythromycin were studied (Table S16, Supplementary). […]
# (§1) Determination of MIC values, i.e., intrinsic antibacterial activity, of products and antibiotics (oxacillin, ampicillin, vancomycin, ciprofloxacin, and erythromycin) in the presence and absence of compounds tested was conducted by the use of a standard 2-fold microdilution method in cation-adjusted Mueller Hinton broth following the Clinical and Laboratory Standards Institute (CLSI) guidelines. The MIC values were detected using an Infinite M200 pro Tecan microplate reader (Tecan® France, SA-Lyon, France). MIC determinations were conducted in 96-well microtiter plates and repeated 3–4 times.
# (§2) MIC values of 5-arylideneimidazolone derivatives were determined following CLSI recommendations as in the methods described for S. aureus (Section 3.3.1).
# S. aureus COL = experiment: MIC reduction assay (antibiotic adjuvant), S. aureus COL; format: cell-based, Staphylococcus aureus; conditions: ampicillin
# Excerpt: The adjuvant properties of compounds 14–16 in S. aureus clinical isolates were next tested in combination with oxacillin and the penicillinase-susceptible β-lactam antibiotic, ampicillin. The second β-lactam antibiotic was chosen based on its vulnerability to enzymatic hydrolysis, another important resistance mechanism in S. aureus against penicillin. Therefore, the results of the MIC reduction assay obtained on the activity of arylideneimidazolones combined with oxacillin and ampicillin, respectively, might provide further insights into the possible mechanism of action of the compounds. Complete results are presented in Supplementary (Tables S4 and S5), while condensed in Figure 6, in the case of desired activity noted. […] One possible explanation for the lack of adjuvant activity of compounds in some of the strains selected for this study might be that these strains express PBP2a only when induced by the antibiotic, while others, for which potentiating activity of compounds was observed, produce this protein in high levels straight away. […]
# (§3) Initially, MICs of a series of imidazolone derivatives were assessed against susceptible (reference) and MDR strains of staphylococci. Next, MIC values of the aforementioned antibiotics were determined in the absence and presence of imidazolone derivatives to assess the chemosensitizing effect of these compounds. […] Antibacterial activity of compounds and antibiotics ampicillin, vancomycin, ciprofloxacin, and erythromycin was recorded as the lowest concentration of molecules able to inhibit bacterial growth after 18 h incubation at 37 °C. […] The results are presented as activity gain (A) parameter which was calculated as ratio of MIC of a certain antibiotic (MICAnt) to its MICAnt+Comp, observed in combination with a tested compound (7, 12–16, 19, or 20; Equation (1)). […]
# S. aureus ATCC 25923 = experiment: MIC determination (microdilution), S. aureus ATCC 25923; format: cell-based, Staphylococcus aureus; conditions: Staphylococcus aureus
# Experimental: as §1
# (§4) Initially, MICs of a series of imidazolone derivatives were assessed against susceptible (reference) and MDR strains of staphylococci. Next, MIC values of the aforementioned antibiotics were determined in the absence and presence of imidazolone derivatives to assess the chemosensitizing effect of these compounds. […] 5-arylideneimidazolones and 5-arylidenethiazolones, which precipitated after addition to bacterial suspension in MH II medium, were tested at the highest concentrations at which precipitation was not observed. […] Antibacterial activity of compounds and antibiotics ampicillin, vancomycin, ciprofloxacin, and erythromycin was recorded as the lowest concentration of molecules able to inhibit bacterial growth after 18 h incubation at 37 °C. The incubation of bacterial strains exposed to oxacillin paired with compounds tested was conducted at 35 °C and extended to 24 h due to frequent occurrence of heterogeneity among MRSA strains. The results are presented as activity gain (A) parameter which was calculated as ratio of MIC of a certain antibiotic (MICAnt) to its MICAnt+Comp, observed in combination with a tested compound (7, 12–16, 19, or 20; Equation (1)). (1) A=(MICAnt/MICAnt+Comp)
# [2] = test system: AcrAB-TolC efflux pump in K. aerogenes strain Ea-289; experiment: Real-time efflux (RTE) assay, 1,2'-dNA extrusion; format: cell-based, Klebsiella aerogenes; conditions: compound 100 µM; IE=100% total inhibition of efflux
# Experimental: Compounds 7, 12–16, 19, and 20 were also assessed for their EPI property in K. aerogenes strain Ea-289 with the use of a real-time efflux (RTE) assay. Results for compounds 16 and 20 were previously described. The experiment is based on the measurement of the extrusion of a fluorescent dye from bacterial cells overproducing efflux pump transporters in the presence and absence of compounds tested. The dye used in this assay, 1,2’ –dinaphthylamine (1,2’-dNA), is a substrate for the AcrAB-TolC efflux pump, and is strongly fluorescent upon incorporation into a phospholipid bilayer, although it is almost non-fluorescent in an aqueous solution [37, 38].
# A likewise strong blocking efficacy (IE = 83 %) was also noticed for compound 12, while the lowest inhibitory effect was found for compound 13 (IE = 23 %).
# The inhibitory activity of 5-arylideneimidazolone derivatives towards AcrAB-TolC mediated efflux of 1,2’-dNA was detected in K. aerogenes strain Ea-289 by using a real-time fluorometric method. In a first step, bacterial cells were loaded with the environment-sensitive fluorescent membrane probe, 1,2’-dNA, in the presence of the EPI carbonyl cyanide m-chlorophenylhydrazone (CCCP) which inactivated the pump by dissipating membrane potential. Next, compounds tested were added at the concentration of 100 µM and the efflux was energizing by automated injection of glucose at a dose of 50 µM. The fluorescence intensity was measured in a microplate reader (Tecan) with an excitation wavelength of λex = 370 nm and an emission wavelength of λem = 420 nm.
# K. aerogenes Ea-289 = experiment: MIC reduction assay (antibiotic adjuvant), K. aerogenes Ea-289; format: cell-based, Klebsiella aerogenes;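 further: compound at no more than one quarter of its own MIC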
# Experimental: At first, MIC values of compounds were determined (Table S15, Supplementary). Next, their abilities to reduce MICs of the AcrAB-TolC substrates doxycycline (a tetracycline-class antibiotic) and erythromycin were studied (Table S16, Supplementary).
# A subset of compounds, namely 7, 12–16, 19, 20, was also examined for the potential to increase the effectiveness of the antibiotics chloramphenicol, erythromycin, doxycycline, and the fluoroquinolone antibiotic norfloxacin, which all are substrates for AcrAB-TolC in K. aerogenes. In addition to strain Ea-289, the adjuvant-like effect of the compounds was investigated in strain CM-64, which also overexpresses the AcrAB-TolC efflux pump, although it has no changes in porin content, and in the Ea-289 derivatives, i.e., Ea-294 and Ea-308, which are devoid of AcrAB (Table S17, Supplementary).
# as §4, §2
# S. aureus 5328 = experiment: MIC reduction assay (antibiotic adjuvant), S. aureus 5328; format: cell-based, Staphylococcus aureus
# Excerpt: (§5) The adjuvant properties of compounds 14–16 in S. aureus clinical isolates were next tested in combination with oxacillin and the penicillinase-susceptible β-lactam antibiotic, ampicillin. The second β-lactam antibiotic was chosen based on its vulnerability to enzymatic hydrolysis, another important resistance mechanism in S. aureus against penicillin. Therefore, the results of the MIC reduction assay obtained on the activity of arylideneimidazolones combined with oxacillin and ampicillin, respectively, might provide further insights into the possible mechanism of action of the compounds. Complete results are presented in Supplementary (Tables S4 and S5), while condensed in Figure 6, in the case of desired activity noted. […] One possible explanation for the lack of adjuvant activity of compounds in some of the strains selected for this study might be that these strains express PBP2a only when induced by the antibiotic, while others, for which potentiating activity of compounds was observed, produce this protein in high levels straight away.
# as §1, §4
# S. aureus LG-N017 = experiment: MIC of compounds, S. aureus LG-N017; format: cell-based; conditions: Staphylococcus aureus; LG-N017 (MRSA)
# Experimental: Compounds 14–16 were tested further for their adjuvant-like effect with a set of ten additional S. aureus isolates. Firstly, MIC values of the molecules were evaluated in two clinical MSSA isolates (MM-O058, MM-N072), seven MRSA (USA300 LAC, 5328, LG-N017, MM-O021, R45-CC45, R46-CC22, COL) and one VISA strain (Mu50). Detailed results are presented in the Supplementary section (Table S3).
# as §1
# as §3, with “compounds. […] 5-arylideneimidazolones and 5-arylidenethiazolones, which precipitated after addition to bacterial suspension in MH II medium, were tested at the highest concentrations at which precipitation was not observed.” for “compounds.”
# S. aureus R46-CC22 = experiment: MIC reduction assay (antibiotic adjuvant), S. aureus R46-CC22; format: cell-based, Staphylococcus aureus
# Excerpt: as §5, §1, §4
# [3] = test system: K. aerogenes Ea-294, Ea-308 (devoid of AcrAB); experiment: MIC of compounds, K. aerogenes Ea-294, Ea-308; format: cell-based, Klebsiella aerogenes; conditions: ratio of compound MICs
# [4] = read-out: MIC value/no precipitation
# [5] = read-out: Minimal Inhibitory Concentration (MIC)
# [6] = ATCC25923, unstarred values of column MIC value/no precipitation, read-out: MIC value
# [7] = doxycycline, chloramphenicol, norfloxacin, erythromycin
SMILES,"MIC [1, 4] [µM]","MIC [1, 5] [µM]",A (activity gain) (S. aureus COL),MIC (S. aureus ATCC 25923; [6]) [µM],"Inhibition efficiency (IE) towards extrusion of 1,2'-dNA [2] [%]",A (activity gain) (K. aerogenes Ea-289; doxycycline),A (activity gain) (K. aerogenes Ea-289; [7]),A (activity gain) (K. aerogenes Ea-289; erythromycin),A (activity gain) (S. aureus 5328; ampicillin),"A (activity gain) (S. aureus 5328; erythromycin, S. aureus 53284)",MIC (S. aureus LG-N017) [µM],A (activity gain) (S. aureus R46-CC22; ampicillin),A (activity gain) (S. aureus R46-CC22; ciprofloxacin),"MIC (S. aureus ATCC 25923; ATCC25923, read-out: MIC value) [µM]",more effective in strains Ea-294 and Ea-298 when compared to the parental strain Ea-289 [3] [fold]
NC1=N/C(=C\c2ccc(-c3ccccc3)cc2)C(=O)N1CCN1CCOCC1 [Compound 14],> 250,> 2000,1,31.2 to 250,57,1,1,1,2,1,≥ 500,2,1,–,–
NC1=N/C(=C\c2ccc(-c3ccccc3)cc2)C(=O)N1CCCN1CCOCC1 [Compound 15],> 250,> 2000,1,31.2 to 250,72,1,1,1,2,1,250,2,1,125,≥ 4
NC1=N/C(=C\c2cccc(Oc3ccccc3)c2)C(=O)N1CCCN1CCOCC1 [Compound 16],–,> 2000,1,31.2 to 250,–,–,–,–,1,1,250,1,1,–,≥ 4
NC1=N/C(=C\c2ccc3c(c2)Cc2ccccc2-3)C(=O)N1CCCN1CCOCC1 [Compound 19],> 250,> 2000,–,31.2 to 250,90,1,1,1,–,–,–,–,–,–,≥ 4
